Test results taken from ChEMBL document CHEMBL1150977, “A quantitative analysis of kinase inhibitor selectivity” (Nat Biotechnol, 2008).

What was measured:
[1] = target: Cyclin-dependent kinase 3 (Homo sapiens, UniProt Q00526)
[2] = target: Fibroblast growth factor receptor 3 (Homo sapiens, UniProt P22607)
[3] = target: AP2-associated protein kinase 1 (Homo sapiens, UniProt Q2M2I8)
[4] = target: Tyrosine-protein kinase Lyn (Homo sapiens, UniProt P07948)
[5] = target: Dual specificity testis-specific protein kinase 1 (Homo sapiens, UniProt Q15569)
[6] = target: Serine/threonine-protein kinase MRCK beta (Homo sapiens, UniProt Q9Y5S2)
[7] = target: Dual specificity protein kinase CLK4 (Homo sapiens, UniProt Q9HAZ1)
[8] = target: Tyrosine-protein kinase Fyn (Homo sapiens, UniProt P06241)
[9] = target: T1, Serine/threonine-protein kinase LATS1 (Homo sapiens, UniProt O95835)
T1 sequence (O95835 whole entry): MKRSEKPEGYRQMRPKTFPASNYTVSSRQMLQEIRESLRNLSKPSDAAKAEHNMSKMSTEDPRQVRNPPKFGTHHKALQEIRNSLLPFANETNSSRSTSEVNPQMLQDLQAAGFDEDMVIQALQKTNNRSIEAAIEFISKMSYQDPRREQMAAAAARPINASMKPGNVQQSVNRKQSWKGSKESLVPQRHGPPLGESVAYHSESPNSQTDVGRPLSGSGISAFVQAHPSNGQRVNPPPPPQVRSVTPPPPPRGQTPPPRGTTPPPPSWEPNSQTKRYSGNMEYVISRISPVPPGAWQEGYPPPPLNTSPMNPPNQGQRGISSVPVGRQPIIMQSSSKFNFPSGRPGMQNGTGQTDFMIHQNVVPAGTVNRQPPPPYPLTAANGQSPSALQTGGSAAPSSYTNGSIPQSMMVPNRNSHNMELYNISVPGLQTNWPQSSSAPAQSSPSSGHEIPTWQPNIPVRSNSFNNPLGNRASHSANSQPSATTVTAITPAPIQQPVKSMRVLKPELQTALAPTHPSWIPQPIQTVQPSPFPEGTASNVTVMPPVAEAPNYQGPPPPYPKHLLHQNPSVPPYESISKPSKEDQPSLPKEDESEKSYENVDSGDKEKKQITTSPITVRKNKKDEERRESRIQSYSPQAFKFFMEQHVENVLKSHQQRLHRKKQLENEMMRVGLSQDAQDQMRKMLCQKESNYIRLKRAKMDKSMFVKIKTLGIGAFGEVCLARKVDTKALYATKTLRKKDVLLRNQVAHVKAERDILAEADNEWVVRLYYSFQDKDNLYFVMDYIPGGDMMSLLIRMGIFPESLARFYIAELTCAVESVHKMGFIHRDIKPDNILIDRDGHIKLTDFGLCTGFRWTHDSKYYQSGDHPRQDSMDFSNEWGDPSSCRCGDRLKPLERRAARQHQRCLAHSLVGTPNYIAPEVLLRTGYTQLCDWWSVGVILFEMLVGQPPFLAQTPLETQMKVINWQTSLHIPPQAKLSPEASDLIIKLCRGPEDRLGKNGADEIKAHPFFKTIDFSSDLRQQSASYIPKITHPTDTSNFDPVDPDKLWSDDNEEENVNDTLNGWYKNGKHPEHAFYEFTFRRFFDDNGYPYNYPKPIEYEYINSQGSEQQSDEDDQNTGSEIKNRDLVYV

[10] = target: T2, Myotonin-protein kinase (Homo sapiens, UniProt Q09013)
T2 sequence (Q09013 whole entry): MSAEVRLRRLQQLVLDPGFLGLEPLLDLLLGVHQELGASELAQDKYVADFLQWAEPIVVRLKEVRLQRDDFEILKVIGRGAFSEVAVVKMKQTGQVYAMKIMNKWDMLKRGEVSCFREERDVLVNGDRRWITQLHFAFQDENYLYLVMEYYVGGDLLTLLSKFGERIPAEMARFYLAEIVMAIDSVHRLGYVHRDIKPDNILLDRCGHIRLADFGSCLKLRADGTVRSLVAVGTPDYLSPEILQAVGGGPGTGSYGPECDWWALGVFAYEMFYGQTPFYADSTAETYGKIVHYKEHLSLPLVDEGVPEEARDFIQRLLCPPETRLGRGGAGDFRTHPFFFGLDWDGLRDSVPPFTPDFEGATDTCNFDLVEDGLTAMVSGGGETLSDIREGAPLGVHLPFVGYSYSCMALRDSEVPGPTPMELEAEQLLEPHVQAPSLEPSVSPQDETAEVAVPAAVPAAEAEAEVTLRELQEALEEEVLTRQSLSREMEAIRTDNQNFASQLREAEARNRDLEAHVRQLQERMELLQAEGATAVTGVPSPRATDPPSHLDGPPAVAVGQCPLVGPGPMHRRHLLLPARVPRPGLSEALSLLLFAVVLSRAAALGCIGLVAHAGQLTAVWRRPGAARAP

[11] = target: T3, Serine/threonine-protein kinase DCLK2 (Homo sapiens, UniProt Q8N568)
T3 sequence (Q8N568 whole entry): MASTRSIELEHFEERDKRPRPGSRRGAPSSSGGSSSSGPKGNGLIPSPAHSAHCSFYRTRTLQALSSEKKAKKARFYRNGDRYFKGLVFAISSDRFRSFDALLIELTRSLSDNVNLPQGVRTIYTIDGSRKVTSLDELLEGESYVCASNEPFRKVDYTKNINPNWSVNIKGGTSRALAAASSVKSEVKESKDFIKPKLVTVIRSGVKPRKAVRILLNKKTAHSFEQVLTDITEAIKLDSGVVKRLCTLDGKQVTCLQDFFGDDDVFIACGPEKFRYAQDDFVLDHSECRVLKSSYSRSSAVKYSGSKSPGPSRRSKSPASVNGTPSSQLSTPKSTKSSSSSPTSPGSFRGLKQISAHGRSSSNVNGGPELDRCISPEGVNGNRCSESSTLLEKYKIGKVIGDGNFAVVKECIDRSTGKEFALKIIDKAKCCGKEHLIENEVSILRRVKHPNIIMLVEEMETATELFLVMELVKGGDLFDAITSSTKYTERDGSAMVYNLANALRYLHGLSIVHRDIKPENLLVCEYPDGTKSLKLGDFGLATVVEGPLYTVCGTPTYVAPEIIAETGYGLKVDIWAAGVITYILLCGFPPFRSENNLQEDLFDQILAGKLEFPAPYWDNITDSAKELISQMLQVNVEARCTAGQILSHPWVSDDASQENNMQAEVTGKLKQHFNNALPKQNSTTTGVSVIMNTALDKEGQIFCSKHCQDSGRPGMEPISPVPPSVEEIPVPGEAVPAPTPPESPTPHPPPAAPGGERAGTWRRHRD

[12] = target: Serine/threonine-protein kinase B-raf (Homo sapiens, UniProt P15056)
Serine/threonine-protein kinase B-raf, sequence (P15056 whole entry): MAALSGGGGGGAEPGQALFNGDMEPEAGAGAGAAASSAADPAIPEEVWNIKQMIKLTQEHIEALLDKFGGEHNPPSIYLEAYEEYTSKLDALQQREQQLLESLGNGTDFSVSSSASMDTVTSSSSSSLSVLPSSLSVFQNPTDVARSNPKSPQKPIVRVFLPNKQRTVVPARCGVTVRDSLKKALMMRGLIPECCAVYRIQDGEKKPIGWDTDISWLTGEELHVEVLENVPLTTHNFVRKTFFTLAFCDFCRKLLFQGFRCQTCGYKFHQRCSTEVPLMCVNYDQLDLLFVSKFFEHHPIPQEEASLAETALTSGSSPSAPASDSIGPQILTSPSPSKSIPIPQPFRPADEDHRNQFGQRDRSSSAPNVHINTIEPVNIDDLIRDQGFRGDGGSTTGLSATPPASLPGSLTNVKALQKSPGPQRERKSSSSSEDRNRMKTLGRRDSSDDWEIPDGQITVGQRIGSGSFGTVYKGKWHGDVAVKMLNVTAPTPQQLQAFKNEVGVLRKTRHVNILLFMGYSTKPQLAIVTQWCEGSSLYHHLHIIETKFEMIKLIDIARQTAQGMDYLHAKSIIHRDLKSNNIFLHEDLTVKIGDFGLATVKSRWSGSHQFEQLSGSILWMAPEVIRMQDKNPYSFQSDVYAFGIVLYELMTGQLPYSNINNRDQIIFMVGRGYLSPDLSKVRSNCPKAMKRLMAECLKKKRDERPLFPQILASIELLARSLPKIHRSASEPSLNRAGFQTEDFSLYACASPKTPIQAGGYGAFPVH

Cyclin-dependent kinase 3, sequence (Q00526 whole entry): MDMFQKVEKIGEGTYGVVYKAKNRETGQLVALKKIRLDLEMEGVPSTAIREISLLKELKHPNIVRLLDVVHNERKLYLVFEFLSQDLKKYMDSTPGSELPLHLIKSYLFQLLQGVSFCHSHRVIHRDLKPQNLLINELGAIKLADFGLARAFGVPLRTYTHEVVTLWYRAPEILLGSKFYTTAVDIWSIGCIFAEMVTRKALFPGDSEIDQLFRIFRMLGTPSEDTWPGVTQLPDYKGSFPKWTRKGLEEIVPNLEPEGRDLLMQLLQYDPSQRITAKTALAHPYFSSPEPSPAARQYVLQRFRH
Tyrosine-protein kinase Fyn, sequence (P06241 whole entry): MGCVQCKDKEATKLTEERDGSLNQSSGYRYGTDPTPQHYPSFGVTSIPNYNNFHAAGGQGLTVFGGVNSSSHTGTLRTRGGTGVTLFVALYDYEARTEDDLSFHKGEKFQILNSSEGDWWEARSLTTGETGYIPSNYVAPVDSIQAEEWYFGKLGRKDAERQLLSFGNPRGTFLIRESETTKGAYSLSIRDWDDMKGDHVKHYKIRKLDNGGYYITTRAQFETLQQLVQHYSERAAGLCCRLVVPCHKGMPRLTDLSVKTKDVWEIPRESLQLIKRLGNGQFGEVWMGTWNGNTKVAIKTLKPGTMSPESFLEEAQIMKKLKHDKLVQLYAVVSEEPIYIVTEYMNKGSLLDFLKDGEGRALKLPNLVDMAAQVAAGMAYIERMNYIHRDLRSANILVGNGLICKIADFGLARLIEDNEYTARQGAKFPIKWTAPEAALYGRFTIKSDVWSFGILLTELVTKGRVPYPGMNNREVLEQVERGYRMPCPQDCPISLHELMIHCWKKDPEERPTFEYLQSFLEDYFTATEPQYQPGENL
Tyrosine-protein kinase Lyn, sequence (P07948 whole entry): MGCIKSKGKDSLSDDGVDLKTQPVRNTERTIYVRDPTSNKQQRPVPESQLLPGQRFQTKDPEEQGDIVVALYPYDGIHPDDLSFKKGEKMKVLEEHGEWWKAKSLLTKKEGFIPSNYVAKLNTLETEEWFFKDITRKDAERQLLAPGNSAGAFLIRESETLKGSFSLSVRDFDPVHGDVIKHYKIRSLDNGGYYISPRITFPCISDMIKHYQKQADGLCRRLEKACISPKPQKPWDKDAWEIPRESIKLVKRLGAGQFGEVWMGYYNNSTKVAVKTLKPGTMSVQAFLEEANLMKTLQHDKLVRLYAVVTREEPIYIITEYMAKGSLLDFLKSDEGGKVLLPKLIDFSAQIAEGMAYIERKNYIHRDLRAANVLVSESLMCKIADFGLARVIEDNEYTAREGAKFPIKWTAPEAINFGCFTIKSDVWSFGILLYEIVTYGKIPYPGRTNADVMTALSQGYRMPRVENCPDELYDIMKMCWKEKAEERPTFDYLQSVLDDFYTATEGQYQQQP
Dual specificity protein kinase CLK4, sequence (Q9HAZ1 whole entry): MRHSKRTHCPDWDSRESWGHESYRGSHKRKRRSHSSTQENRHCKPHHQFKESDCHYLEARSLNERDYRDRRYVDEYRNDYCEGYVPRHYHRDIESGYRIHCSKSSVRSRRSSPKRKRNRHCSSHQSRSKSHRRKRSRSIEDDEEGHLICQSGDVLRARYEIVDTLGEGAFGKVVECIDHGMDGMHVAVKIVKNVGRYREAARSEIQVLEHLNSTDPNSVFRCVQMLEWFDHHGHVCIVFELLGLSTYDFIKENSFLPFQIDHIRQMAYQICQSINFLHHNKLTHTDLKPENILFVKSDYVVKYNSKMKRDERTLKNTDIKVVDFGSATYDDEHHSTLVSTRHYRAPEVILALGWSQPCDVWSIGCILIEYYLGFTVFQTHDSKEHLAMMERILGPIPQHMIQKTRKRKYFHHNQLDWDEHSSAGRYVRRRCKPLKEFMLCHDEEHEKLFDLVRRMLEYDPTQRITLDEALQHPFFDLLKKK
Fibroblast growth factor receptor 3, sequence (P22607 whole entry): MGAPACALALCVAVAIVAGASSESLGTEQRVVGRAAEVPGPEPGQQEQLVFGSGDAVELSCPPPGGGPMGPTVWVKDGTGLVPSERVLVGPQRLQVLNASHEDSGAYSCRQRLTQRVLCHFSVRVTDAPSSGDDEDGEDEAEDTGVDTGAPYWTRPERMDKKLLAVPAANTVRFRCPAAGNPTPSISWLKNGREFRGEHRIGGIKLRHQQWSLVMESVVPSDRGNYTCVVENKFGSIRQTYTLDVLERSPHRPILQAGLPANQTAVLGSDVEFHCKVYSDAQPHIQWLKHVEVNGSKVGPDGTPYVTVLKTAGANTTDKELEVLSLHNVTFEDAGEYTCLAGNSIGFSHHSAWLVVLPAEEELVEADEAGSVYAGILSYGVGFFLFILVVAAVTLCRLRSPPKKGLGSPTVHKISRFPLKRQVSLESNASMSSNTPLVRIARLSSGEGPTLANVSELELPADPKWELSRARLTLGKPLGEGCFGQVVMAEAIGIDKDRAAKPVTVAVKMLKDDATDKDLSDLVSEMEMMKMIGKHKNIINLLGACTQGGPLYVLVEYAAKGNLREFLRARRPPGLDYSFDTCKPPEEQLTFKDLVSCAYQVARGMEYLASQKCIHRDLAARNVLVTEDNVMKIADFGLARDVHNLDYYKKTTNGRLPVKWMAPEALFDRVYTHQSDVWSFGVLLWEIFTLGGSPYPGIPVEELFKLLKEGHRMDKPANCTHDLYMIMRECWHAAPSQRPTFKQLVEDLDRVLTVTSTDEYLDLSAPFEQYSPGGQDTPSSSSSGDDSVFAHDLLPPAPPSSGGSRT
AP2-associated protein kinase 1, sequence (Q2M2I8 whole entry): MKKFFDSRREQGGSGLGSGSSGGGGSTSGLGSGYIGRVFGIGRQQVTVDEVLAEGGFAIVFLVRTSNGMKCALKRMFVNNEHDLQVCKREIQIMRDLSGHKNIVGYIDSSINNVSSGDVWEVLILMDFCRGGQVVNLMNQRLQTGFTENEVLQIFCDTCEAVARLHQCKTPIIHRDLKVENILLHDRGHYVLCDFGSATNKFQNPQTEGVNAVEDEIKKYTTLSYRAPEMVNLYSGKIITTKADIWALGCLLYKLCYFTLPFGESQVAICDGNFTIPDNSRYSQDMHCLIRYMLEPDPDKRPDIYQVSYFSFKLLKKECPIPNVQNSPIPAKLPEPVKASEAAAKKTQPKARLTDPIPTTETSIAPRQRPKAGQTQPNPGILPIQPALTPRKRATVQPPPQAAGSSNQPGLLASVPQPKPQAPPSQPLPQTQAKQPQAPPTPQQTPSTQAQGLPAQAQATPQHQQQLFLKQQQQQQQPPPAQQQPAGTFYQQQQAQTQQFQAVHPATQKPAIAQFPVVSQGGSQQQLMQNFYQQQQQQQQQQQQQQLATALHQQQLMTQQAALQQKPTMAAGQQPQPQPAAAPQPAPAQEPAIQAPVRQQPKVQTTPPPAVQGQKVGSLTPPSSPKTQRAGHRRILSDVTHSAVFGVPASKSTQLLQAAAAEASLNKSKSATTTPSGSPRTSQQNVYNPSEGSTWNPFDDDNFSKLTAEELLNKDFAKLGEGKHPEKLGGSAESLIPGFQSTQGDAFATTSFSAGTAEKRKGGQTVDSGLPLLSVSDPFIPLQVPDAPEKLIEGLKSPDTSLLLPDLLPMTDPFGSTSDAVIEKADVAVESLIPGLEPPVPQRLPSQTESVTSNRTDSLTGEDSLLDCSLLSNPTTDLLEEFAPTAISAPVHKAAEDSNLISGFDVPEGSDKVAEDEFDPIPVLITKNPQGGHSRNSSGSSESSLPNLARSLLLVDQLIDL
Dual specificity testis-specific protein kinase 1, sequence (Q15569 whole entry): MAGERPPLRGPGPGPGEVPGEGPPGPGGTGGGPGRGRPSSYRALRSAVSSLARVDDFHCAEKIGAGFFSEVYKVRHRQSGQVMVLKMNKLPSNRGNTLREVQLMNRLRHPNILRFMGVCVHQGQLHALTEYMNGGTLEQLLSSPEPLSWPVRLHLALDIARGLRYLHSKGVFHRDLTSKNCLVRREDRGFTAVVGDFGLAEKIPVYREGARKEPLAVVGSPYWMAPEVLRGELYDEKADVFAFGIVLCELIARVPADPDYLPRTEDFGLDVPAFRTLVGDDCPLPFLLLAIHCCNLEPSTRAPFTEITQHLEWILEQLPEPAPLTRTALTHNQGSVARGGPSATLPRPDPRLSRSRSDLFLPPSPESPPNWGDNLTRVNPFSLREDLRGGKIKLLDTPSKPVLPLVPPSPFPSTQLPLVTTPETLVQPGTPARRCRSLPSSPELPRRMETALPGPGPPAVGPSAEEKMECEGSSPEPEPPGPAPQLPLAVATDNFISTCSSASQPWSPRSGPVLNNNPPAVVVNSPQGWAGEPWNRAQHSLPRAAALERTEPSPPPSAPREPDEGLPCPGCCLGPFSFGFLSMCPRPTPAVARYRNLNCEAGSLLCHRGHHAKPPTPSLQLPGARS

| SMILES | Kd [1] [µM] | Kd [2] [µM] | Kd [3] [µM] | Kd [4] [µM] | Kd [5] [µM] | Kd [6] [µM] | Kd [7] [µM] | Kd [8] [µM] | Kd [9] [µM] | Kd [10] [µM] | Kd [11] [µM] | Kd [12] [µM] |
| --- | --- | --- | --- | --- | --- | --- | --- | --- | --- | --- | --- | --- |
| CCN1CCN(Cc2ccc(NC(=O)Nc3ccc(Oc4cc(NC)ncn4)cc3)cc2C(F)(F)F)CC1 [AST-487] | 0.082 | > 10 | – | – | – | – | – | – | – | – | – | – |
| COCC(=O)NC/C=C/c1ccc2ncnc(Nc3ccc(Oc4ccc(C)nc4)c(C)c3)c2c1 [CP-724714] | > 10 | > 10 | > 10 | > 10 | > 10 | > 10 | > 10 | > 10 | > 10 | > 10 | > 10 | – |
| Nc1nc(Nc2ccc(S(N)(=O)=O)cc2)nn1C(=O)c1c(F)cccc1F [JNJ-7706621] | – | – | – | > 10 | 3.1 | > 10 | – | – | > 10 | – | 4.5 | > 10 |
| CCOc1cc2ncc(C#N)c(Nc3ccc(F)c(Cl)c3)c2cc1NC(=O)/C=C/CN(C)C [PELITINIB] | > 10 | > 10 | – | 0.72 | > 10 | > 10 | – | – | > 10 | 0.059 | > 10 | > 10 |
| Oc1ccc(-c2nc(-c3ccncc3)c(-c3ccc(F)cc3)[nH]2)cc1 [SB-202190] | > 10 | > 10 | > 10 | > 10 | > 10 | 4.2 | > 10 | > 10 | > 10 | > 10 | > 10 | 4.8 |
| NC(=O)c1ccc(-c2nc(-c3ccc4c(c3)OCO4)c(-c3ccccn3)[nH]2)cc1 [SB-431542] | > 10 | > 10 | > 10 | > 10 | – | > 10 | > 10 | > 10 | > 10 | > 10 | > 10 | – |
